From patent US8952024B2, “Herbicidal pyrimidone derivatives” (E I du Pont de Nemours and Company, priority 2009, dated 2015)

Key:
Format in all cases: in vivo
[1] = tested on: corn (Zea mays); assay: Test B pre-/postemergence plant response
Outline: (§1)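 Steps: sow seed in loam–sand soil and spray preemergence, or grow plants in peat-based medium to 1–4 leaves (2–18 cm) and spray postemergence; formulation is non-phytotoxic solvent plus surfactant; hold in greenhouse 13–15 days; score visually vs controls, 0 = no effect, 100 = complete control.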

[2] = tested on: giant foxtail (Setaria faberii); assay: Test B pre-/postemergence plant response
Outline: as §1

[3] = tested on: goosegrass (Eleusine indica); assay: Test B pre-/postemergence plant response
Outline: as §1

[4] = tested on: green foxtail (Setaria viridis); assay: Test B pre-/postemergence plant response
Outline: as §1

[5] = tested on: johnsongrass (Sorghum halepense); assay: Test B pre-/postemergence plant response
Outline: as §1

[6] = tested on: lambsquarters (Chenopodium album); assay: Test B pre-/postemergence plant response
Outline: as §1

[7] = tested on: pigweed (Amaranthus retroflexus); assay: Test B pre-/postemergence plant response
Outline: as §1

[8] = tested on: soybean (Glycine max); assay: Test B pre-/postemergence plant response
Outline: as §1

[9] = tested on: velvetleaf (Abutilon theophrasti); assay: Test B pre-/postemergence plant response
Outline: as §1

[10] = tested on: yellow nutsedge (Cyperus esculentus); assay: Test B pre-/postemergence plant response
Outline: as §1

[11] = tested on: canarygrass (Phalaris minor); assay: Test B postemergence plant response
Outline: (§2)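 Plants grown in peat/vermiculite medium were sprayed postemergence at 2–18 cm height (1- to 4-leaf stage). After 13–15 days in the greenhouse, response was rated visually against untreated controls on a 0–100 scale (0 no effect, 100 complete control).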

[12] = tested on: chickweed (Stellaria media); assay: Test B postemergence plant response
Outline: as §2

[13] = tested on: windgrass (Apera spica-venti); assay: Test B postemergence plant response
Outline: as §2

[14] = tested on: winter barley (Hordeum vulgare); assay: Test B postemergence plant response
Outline: as §2

[15] = Postemergence, 31 g ai/ha, 0 to 100 scale (0 no effect, 100 complete control)
[16] = Postemergence, 125 g ai/ha, scale 0 to 100 (0 no effect, 100 complete control)
[17] = Postemergence, 250 g ai/ha, scale 0 to 100 (0 no effect, 100 complete control), 13 to 15 days
[18] = 31 g ai/ha, postemergence, scale 0 to 100, 0 is no effect, 100 is complete control
[19] = 250 g ai/ha, Preemergence, 0 to 100 scale
[20] = Postemergence, 62 g ai/ha, scale 0 (no effect) to 100 (complete control), 13 to 15 days
[21] = Postemergence, 125 g ai/ha, visual rating after 13 to 15 days, scale 0 (no effect) to 100 (complete control)
[22] = Postemergence, 250 g ai/ha, scale 0 to 100 (0 no effect, 100 complete control)
[23] = Preemergence, 31 g ai/ha, scale 0 to 100 (0 no effect, 100 complete control)
[24] = Preemergence, 62 g ai/ha, scale 0 to 100 (0 no effect, 100 complete control)
[25] = Preemergence, 125 g ai/ha, scale 0 to 100, 0 no effect, 100 complete control

Structure (SMILES): O=C1CCCC(O)=C1C(=O)c1cnc(-c2cccc(F)c2)n(C2CCCCC2)c1=O [Compound 187]
- Plant response rating, Corn [1, 15]: 50
- Plant response rating, Corn [1, 16]: 75
- Plant response rating, Corn [1, 17]: 80
- Plant response rating, Foxtail, Giant [2, 15]: 98
- Plant response rating, Foxtail, Giant [2, 16]: 100
- Plant response rating, Foxtail, Giant [2, 17]: 100
- Plant response rating, Goosegrass [3, 15]: 85
- Plant response rating, Goosegrass [3, 16]: 100
- Plant response rating, Goosegrass [3, 17]: 100
- Plant response rating, Foxtail, Green [4, 15]: 65
- Plant response rating, Foxtail, Green [4, 16]: 98
- Plant response rating, Foxtail, Green [4, 17]: 98
- Plant response rating, Johnsongrass [5, 15]: 90
- Plant response rating, Johnsongrass [5, 16]: 100
- Plant response rating, Johnsongrass [5, 17]: 100
- Plant response rating, Lambsquarters [6, 15]: 98
- Plant response rating, Lambsquarters [6, 16]: 100
- Plant response rating, Lambsquarters [6, 17]: 100
- Plant response rating, Pigweed [7, 15]: 100
- Plant response rating, Pigweed [7, 16]: 100
- Plant response rating, Pigweed [7, 17]: 100
- Plant response rating, Soybean [8, 15]: 98
- Plant response rating, Soybean [8, 16]: 100
- Plant response rating, Soybean [8, 17]: 100
- Plant response rating, Velvetleaf [9, 15]: 90
- Plant response rating, Velvetleaf [9, 16]: 100
- Plant response rating, Velvetleaf [9, 17]: 100
- Plant response rating, Nutsedge, Yellow [10, 15]: 45
- Plant response rating, Nutsedge, Yellow [10, 16]: 65
- Plant response rating, Nutsedge, Yellow [10, 17]: 75
- Plant response rating, Canarygrass [11, 15]: 10
- Plant response rating, Canarygrass [11, 16]: 55
- Plant response rating, Canarygrass [11, 17]: 60
- Plant response rating, Chickweed [12, 15]: 100
- Plant response rating, Chickweed [12, 16]: 100
- Plant response rating, Chickweed [12, 17]: 100
- Plant response rating, Windgrass [13, 15]: 10
- Plant response rating, Windgrass [13, 16]: 65
- Plant response rating, Windgrass [13, 17]: 80
- Barley plant response rating (0 to 100 scale) ([14]; 62 g ai/ha, postemergence, 0 is no effect, 100 is complete control, 13 to 15 days): 5
- Plant response rating, Barley [14, 15]: 0
- Plant response rating, Barley [14, 16]: 40
- Plant response rating, Barley [14, 17]: 40

Structure (SMILES): Cc1cc(-n2c(-c3ccccc3)ncc(C(=O)C3=C(O)CCCC3=O)c2=O)ccc1F [Compound 53]
- Plant response rating, Corn [1, 18]: 55
- Plant response rating, Corn [1, 19]: 20
- Plant response rating, Corn [1, 20]: 80
- Plant response rating, Corn [1, 21]: 80
- Plant response rating, Corn [1, 22]: 85
- Plant response rating, Corn [1, 23]: 0
- Plant response rating, Corn [1, 24]: 0
- Plant response rating, Corn [1, 25]: 0
- Plant response rating, Foxtail, Giant [2, 18]: 80
- Plant response rating, Foxtail, Giant [2, 19]: 100
- Plant response rating, Foxtail, Giant [2, 20]: 85
- Plant response rating, Foxtail, Giant [2, 21]: 90
- Plant response rating, Foxtail, Giant [2, 22]: 95
- Plant response rating, Foxtail, Giant [2, 23]: 5
- Plant response rating, Foxtail, Giant [2, 24]: 85
- Plant response rating, Foxtail, Giant [2, 25]: 100
- Plant response rating, Goosegrass [3, 18]: 75
- Plant response rating, Goosegrass [3, 19]: 100
- Plant response rating, Goosegrass [3, 20]: 80
- Plant response rating, Goosegrass [3, 21]: 80
- Plant response rating, Goosegrass [3, 22]: 85
- Plant response rating, Goosegrass [3, 23]: 98
- Plant response rating, Goosegrass [3, 24]: 100
- Plant response rating, Goosegrass [3, 25]: 100
- Plant response rating, Foxtail, Green [4, 18]: 95
- Plant response rating, Foxtail, Green [4, 19]: 98
- Plant response rating, Foxtail, Green [4, 20]: 100
- Plant response rating, Foxtail, Green [4, 21]: 100
- Plant response rating, Foxtail, Green [4, 22]: 100
- Plant response rating, Foxtail, Green [4, 23]: 60
- Plant response rating, Foxtail, Green [4, 24]: 60
- Plant response rating, Foxtail, Green [4, 25]: 98
- Plant response rating, Johnsongrass [5, 18]: 55
- Plant response rating, Johnsongrass [5, 19]: 75
- Plant response rating, Johnsongrass [5, 20]: 95
- Plant response rating, Johnsongrass [5, 21]: 95
- Plant response rating, Johnsongrass [5, 22]: 100
- Plant response rating, Johnsongrass [5, 23]: 10
- Plant response rating, Johnsongrass [5, 24]: 55
- Plant response rating, Johnsongrass [5, 25]: 60
- Plant response rating, Lambsquarters [6, 18]: 90
- Plant response rating, Lambsquarters [6, 19]: 100
- Plant response rating, Lambsquarters [6, 20]: 95
- Plant response rating, Lambsquarters [6, 21]: 98
- Plant response rating, Lambsquarters [6, 22]: 98
- Plant response rating, Lambsquarters [6, 23]: 98
- Plant response rating, Lambsquarters [6, 24]: 100
- Plant response rating, Lambsquarters [6, 25]: 100
- Plant response rating, Pigweed [7, 18]: 85
- Plant response rating, Pigweed [7, 20]: 95
- Plant response rating, Pigweed [7, 21]: 100
- Plant response rating, Pigweed [7, 22]: 100
- Plant response rating, Pigweed [7, 23]: 95
- Plant response rating, Pigweed [7, 24]: 98
- Plant response rating, Pigweed [7, 25]: 100
- Plant response rating, Soybean [8, 18]: 90
- Plant response rating, Soybean [8, 20]: 95
- Plant response rating, Soybean [8, 21]: 95
- Plant response rating, Soybean [8, 22]: 95
- Plant response rating, Soybean [8, 23]: 0
- Plant response rating, Soybean [8, 24]: 70
- Plant response rating, Soybean [8, 25]: 80
- Plant response rating, Velvetleaf [9, 18]: 85
- Plant response rating, Velvetleaf [9, 20]: 85
- Plant response rating, Velvetleaf [9, 21]: 95
- Plant response rating, Velvetleaf [9, 22]: 98
- Plant response rating, Velvetleaf [9, 23]: 80
- Plant response rating, Velvetleaf [9, 24]: 98
- Plant response rating, Velvetleaf [9, 25]: 98
- Plant response rating, Nutsedge, Yellow [10, 18]: 20
- Plant response rating, Nutsedge, Yellow [10, 20]: 65
- Plant response rating, Nutsedge, Yellow [10, 21]: 75
- Plant response rating, Nutsedge, Yellow [10, 22]: 75
- Plant response rating, Nutsedge, Yellow [10, 23]: 65
- Plant response rating, Nutsedge, Yellow [10, 24]: 80
- Plant response rating, Nutsedge, Yellow [10, 25]: 90
- Plant response rating, Canarygrass [11, 18]: 40
- Plant response rating, Canarygrass [11, 20]: 80
- Plant response rating, Canarygrass [11, 21]: 90
- Plant response rating, Canarygrass [11, 22]: 90
- Plant response rating, Chickweed [12, 18]: 85
- Plant response rating, Chickweed [12, 20]: 98
- Plant response rating, Chickweed [12, 21]: 98
- Plant response rating, Chickweed [12, 22]: 100
- Plant response rating, Windgrass [13, 18]: 60
- Plant response rating, Windgrass [13, 20]: 80
- Plant response rating, Windgrass [13, 21]: 85
- Plant response rating, Windgrass [13, 22]: 95
- Plant response rating, Barley [14, 18]: 0
- Plant response rating, Barley [14, 20]: 50
- Plant response rating, Barley [14, 21]: 70
- Plant response rating, Barley [14, 22]: 70
